± gives the expanded uncertainty stated by the source.
Experiments:
[1] = Crystal 1; DTA
[2] = Molar enthalpy of transition or fusion; conditions: Crystal 1; DSC
[3] = molar heat capacity at constant pressure; conditions: 101.33 kPa, Small sample (50 mg) DSC

NCCCN [1,3-propanediamine]
Triple point temperature [1]: 262.19 ± 0.5 K
Molar enthalpy of transition or fusion [2]: 5.34 ± 0.158 kcal/mol
molar heat capacity at constant pressure ([3]; 210.17 K, Crystal 2): 95.15 ± 1.9 J/K/mol
molar heat capacity at constant pressure ([3]; 211.63 K, Crystal 2): 98.6 ± 2 J/K/mol
molar heat capacity at constant pressure ([3]; 212.38 K, Crystal 2): 99.24 ± 2 J/K/mol
molar heat capacity at constant pressure ([3]; 213.45 K, Crystal 2): 100.56 ± 2 J/K/mol
molar heat capacity at constant pressure ([3]; 214.52 K, Crystal 2): 101.65 ± 2 J/K/mol
molar heat capacity at constant pressure ([3]; 215.39 K, Crystal 2): 102.15 ± 2 J/K/mol
molar heat capacity at constant pressure ([3]; 216.89 K, Crystal 2): 102.21 ± 2 J/K/mol
molar heat capacity at constant pressure ([3]; 217.39 K, Crystal 2): 102.47 ± 2 J/K/mol
molar heat capacity at constant pressure ([3]; 218.2 K, Crystal 2): 103.01 ± 2.1 J/K/mol
molar heat capacity at constant pressure ([3]; 219.56 K, Crystal 2): 103.15 ± 2.1 J/K/mol
molar heat capacity at constant pressure ([3]; 220.98 K, Crystal 2): 103.33 ± 2.1 J/K/mol
molar heat capacity at constant pressure ([3]; 221.6 K, Crystal 2): 104.53 ± 2.1 J/K/mol
molar heat capacity at constant pressure ([3]; 222.57 K, Crystal 2): 105.45 ± 2.1 J/K/mol
molar heat capacity at constant pressure ([3]; 223.61 K, Crystal 2): 106.47 ± 2.1 J/K/mol
molar heat capacity at constant pressure ([3]; 224.16 K, Crystal 2): 106.75 ± 2.1 J/K/mol
molar heat capacity at constant pressure ([3]; 225.7 K, Crystal 2): 106.91 ± 2.1 J/K/mol
molar heat capacity at constant pressure ([3]; 226.44 K, Crystal 2): 107.67 ± 2.1 J/K/mol
molar heat capacity at constant pressure ([3]; 226.87 K, Crystal 2): 108.07 ± 2.2 J/K/mol
molar heat capacity at constant pressure ([3]; 228.09 K, Crystal 2): 108.1 ± 2.2 J/K/mol
molar heat capacity at constant pressure ([3]; 229.51 K, Crystal 2): 108.47 ± 2.2 J/K/mol
molar heat capacity at constant pressure ([3]; 230.13 K, Crystal 2): 109.74 ± 2.2 J/K/mol
molar heat capacity at constant pressure ([3]; 231.59 K, Crystal 2): 110.88 ± 2.2 J/K/mol
molar heat capacity at constant pressure ([3]; 232.5 K, Crystal 2): 111.31 ± 2.2 J/K/mol
molar heat capacity at constant pressure ([3]; 233.79 K, Crystal 2): 111.43 ± 2.2 J/K/mol
molar heat capacity at constant pressure ([3]; 234.58 K, Crystal 2): 113.62 ± 2.3 J/K/mol
molar heat capacity at constant pressure ([3]; 235.36 K, Crystal 2): 115.41 ± 2.3 J/K/mol
molar heat capacity at constant pressure ([3]; 237.9 K, Crystal 2): 116.57 ± 2.3 J/K/mol
molar heat capacity at constant pressure ([3]; 238.39 K, Crystal 2): 116.7 ± 2.3 J/K/mol
molar heat capacity at constant pressure ([3]; 239.37 K, Crystal 2): 117.02 ± 2.3 J/K/mol
molar heat capacity at constant pressure ([3]; 240.41 K, Crystal 2): 119.05 ± 2.4 J/K/mol
molar heat capacity at constant pressure ([3]; 269.31 K, Liquid): 200.32 ± 4 J/K/mol
molar heat capacity at constant pressure ([3]; 271.34 K, Liquid): 200.44 ± 4 J/K/mol
molar heat capacity at constant pressure ([3]; 273.29 K, Liquid): 200.87 ± 4 J/K/mol
molar heat capacity at constant pressure ([3]; 275.36 K, Liquid): 200.94 ± 4 J/K/mol
molar heat capacity at constant pressure ([3]; 277.41 K, Liquid): 201.41 ± 4 J/K/mol
molar heat capacity at constant pressure ([3]; 279.63 K, Liquid): 201.51 ± 4 J/K/mol
molar heat capacity at constant pressure ([3]; 281.55 K, Liquid): 201.82 ± 4 J/K/mol
molar heat capacity at constant pressure ([3]; 283.37 K, Liquid): 202.03 ± 4 J/K/mol
molar heat capacity at constant pressure ([3]; 285.47 K, Liquid): 202.29 ± 4 J/K/mol
molar heat capacity at constant pressure ([3]; 287.35 K, Liquid): 202.53 ± 4 J/K/mol
molar heat capacity at constant pressure ([3]; 289.23 K, Liquid): 202.79 ± 4.1 J/K/mol
molar heat capacity at constant pressure ([3]; 291.28 K, Liquid): 203.12 ± 4.1 J/K/mol
molar heat capacity at constant pressure ([3]; 293.27 K, Liquid): 203.44 ± 4.1 J/K/mol
molar heat capacity at constant pressure ([3]; 295.53 K, Liquid): 204.02 ± 4.1 J/K/mol
molar heat capacity at constant pressure ([3]; 297.16 K, Liquid): 204.35 ± 4.1 J/K/mol
molar heat capacity at constant pressure ([3]; 299.44 K, Liquid): 204.4 ± 4.1 J/K/mol
molar heat capacity at constant pressure ([3]; 302.13 K, Liquid): 204.56 ± 4.1 J/K/mol
molar heat capacity at constant pressure ([3]; 304.68 K, Liquid): 204.87 ± 4.1 J/K/mol
molar heat capacity at constant pressure ([3]; 306.46 K, Liquid): 204.95 ± 4.1 J/K/mol
molar heat capacity at constant pressure ([3]; 308.51 K, Liquid): 205.44 ± 4.1 J/K/mol
molar heat capacity at constant pressure ([3]; 310.56 K, Liquid): 205.49 ± 4.1 J/K/mol
molar heat capacity at constant pressure ([3]; 312.42 K, Liquid): 205.78 ± 4.1 J/K/mol
molar heat capacity at constant pressure ([3]; 315.65 K, Liquid): 206.16 ± 4.1 J/K/mol
molar heat capacity at constant pressure ([3]; 317.6 K, Liquid): 206.28 ± 4.1 J/K/mol
molar heat capacity at constant pressure ([3]; 320.27 K, Liquid): 206.67 ± 4.1 J/K/mol
molar heat capacity at constant pressure ([3]; 322.36 K, Liquid): 206.76 ± 4.1 J/K/mol
molar heat capacity at constant pressure ([3]; 325.51 K, Liquid): 207.27 ± 4.2 J/K/mol
molar heat capacity at constant pressure ([3]; 327.54 K, Liquid): 207.43 ± 4.2 J/K/mol
molar heat capacity at constant pressure ([3]; 330.44 K, Liquid): 207.85 ± 4.2 J/K/mol
molar heat capacity at constant pressure ([3]; 333.46 K, Liquid): 207.99 ± 4.2 J/K/mol
